Paper PMC4213378, “Pharmacokinetics and Efficacy of the Spleen Tyrosine Kinase Inhibitor R406 after Ocular Delivery for Retinoblastoma” (Pharmaceutical Research, 2014)

Legend:
[1] = Co-solvent solution formulation solubility matrix; assay type: physicochemical
[2] = Concentration and stability of R406 in castor oil and castor oil emulsion; assay type: physicochemical
Procedure: For oral delivery of R788, the target dose of 25 mg/kg R788 was administered by oral gavage as a 4 mM solution in 0.01 N citrate buffer, pH 6 ([9]). For subconjunctival administration, R788 was prepared at a concentration of 4 mM in 2% PEG-800 and filtered through a 0.22 μm filter prior to use (see Table S1). R788 was also administered subconjunctivally as a suspension at a concentration of 25 mM in 10% 2-hydroxylpropyl-β-cyclodextrin (HPβCD, Sigma-Aldrich). For subconjunctival administration, R406 phenylsulfonate salt was administered at a concentration of 800–900 μM as a cosolvent solution in a formulation of 5% Cremaphor-eL, 0.5% ethanol, 0.2% Tween 80 and 94.3% PBS, filtered through a 0.22 μm filter prior to use (see Table S2). R406 phenylsulfonate salt was also administered subconjunctivally at a dose of 31.4 mM solution in DMSO. R406 free base was administered subconjunctivally at a concentration of 6.5 mM as a 25% castor oil (Sigma-Aldrich) emulsion. This emulsion was prepared by mixing castor oil: ethanol (1:1) solution of R406 (approx. 35 mM), in vacuo evaporation of the ethanol, and centrifugation to remove any excess R406, then emulsifying the R406 oil phase in an aqueous phase comprised of Cremaphor-eL, Tween 80 and PBS (final composition of the emulsion: 25% castor oil, 5% Cremaphor-eL, 0.2% Tween-80, 69.8% PBS) by probe sonication. For intravitreal injection, R788 solution was prepared by filtering a 0.12 mM (120 μM) solution of R788 in saline through a 0.22 μm filter. […] For topical delivery, 25–30 mM suspensions were prepared in 5% HPβCD. R406 or R788 concentration in all formulations was determined by UPLC prior to study (in cases where formulation was filtered before administration, concentration was determined post-filtering) Table I.
An emulsion of 30% castor oil, 5% Cremaphor, 4% T80, 61% PBS was prepared and samples were stored at 4 °C and room temperature (25 °C). Samples were diluted and OD600 for each dilution was measured in triplicate on the day of emulsion preparation (storage time = 0 days) and after 6 days of storage. OD600 was measured using a black Costar clear bottom plate and a Spectramax plate reader.
For storage stability in emulsion, n =4.

[3] = Concentration and stability of R406 in cosolvent solution formulation; assay type: physicochemical
Procedure: R406 stability in cosolvent solution: Precipitation of R406 in the cosolvent solution causes a drop in concentration after 48 hours of storage at room temperature (Table S3), but there is no loss of purity indicating R406 is chemically stable in the co-solvent solution for 48 hours at room temperature (Figure S4).

[4] = Storage stability of R406 in murine plasma samples; assay type: physicochemical, mouse
Procedure: Stability: The extracted solution stability of R406 from murine plasma or vitreous was assessed at low (41.2nM), medium (370.4 nM), and high (3333.3 nM) concentrations in triplicate at room temperature. Blank murine plasma was spiked with the indicated concentrations of R406 and extracted solutions were stored at room temperature for day 0, and day 2. The short-term stability of R406 in murine plasma or vitreous at -20 °C was assessed at three concentrations in triplicate. Samples were thawed at day 1 and 2. At day 2, protein precipitation was performed and samples treated with internal standard/acetonitrile as described previously: for murine plasma samples, 50 µL of sample was quenched by addition of 100 µL of 5 mg/L OSI-906 (internal standard) in 100% acetonitrile, followed by plate sealing, shaking and centrifuging, transfer of 100 µL of supernatant injection of 10 µL of supernatant onto the LC–MS/MS system; for murine vitreous samples, 5 µL of sample quenched by addition of 45 µL of 5 mg/L OSI-906 (internal standard) in 100% acetonitrile, followed by plate sealing, shaking and centrifuging, transfer of 40 µL of supernatant injection of 10 µL of supernatant onto the LC–MS/MS system. Long term stability of R406 in murine plasma or vitreous at −80 °C was assessed. Unextracted spiked murine plasma or vitreous at low, medium, and high levels was frozen at −80 °C for 0, 7, and 14 days. Samples were thawed immediately extracted with acetonitrile/OSI-906, and quantitated. All samples were analyzed in triplicates.

[5] = Storage stability of R406 in murine plasma samples; assay type: physicochemical, mouse; conditions: murine plasma at -20°C, thawed on Day 3, injected at Day 3
[6] = Storage Time = 24 hr, room temperature
[7] = Storage Time = 48 hr, room temperature
[8] = Storage Time = 72 hr, room temperature

In the case of COc1cc(Nc2ncc(F)c(Nc3ccc4c(n3)NC(=O)C(C)(C)O4)n2)cc(OC)c1OC.O=S(=O)(O)c1ccccc1 [R406 phenylsulfonate salt], the “R406 Solubility” value ([1]; Trial 1: 0.1% Tyloxapol, 99.9% PBS) is reported as 11.7 mM, the “R406 Solubility” value ([1]; Trial 4: 3% Glycerin, 97% PBS) is reported as 0.4 mM and the “R406 Solubility” value ([1]; Trial 5: 5% Cremaphor-eL, 95% PBS) is reported as 170.1 mM. For the same compound, the “R406 Solubility” value ([1]; Trial 6: 10% pG, 90% PBS) was 0.4 mM, the “R406 Solubility” value ([1]; Trial 7: 15% pPG, 85% PBS) was 15 mM and the “R406 Solubility” value ([1]; Trial 8: 0.2% Tween-80, 99.8% PBS) was 399.2 mM. For the same compound, the “R406 Solubility” value ([1]; Trial 9: 100% PBS) was 0.4 mM, the “R406 Solubility” value ([1]; Trial 10: 2% PEG-8000, 0.2% Tween-80, 97.8% PBS) was 0.4 mM and the “R406 Solubility” value ([1]; Trial 11: 0.5% EtOH, 0.2% Tween-80, 85.8% PBS) was 0.6 mM. The “R406 Solubility” value ([1]; Trial 12: 3% Glycerin, 0.2% Tween-80, 96.8% PBS) was 1.0 mM, the “R406 Solubility” value ([1]; Trial 13: 5% Cremaphor-eL, 0.2% Tween-80, 94.8% PBS) was 178.0 mM and the “R406 Solubility” value ([1]; Trial 14: 10% pG, 0.2% Tween-80, 99.8% PBS) was 0.9 mM. For the same compound, the “R406 Solubility” value ([1]; Trial 15: 15% pPG, 0.2% Tween-80, 85.8% PBS) was 31.4 mM, the “R406 Solubility” value ([1]; Trial 16: 2% PEG-8000, 0.5% EtOH, 97.5% PBS) was 1.5 mM and the “R406 Solubility” value ([1]; Trial 17: 2% PEG-8000, 3% Glycerin, 95% PBS) was 0.4 mM. The “R406 Solubility” value ([1]; Trial 18: 2% PEG-8000, 5% Cremaphor-eL, 93% PBS) was 144.0 mM, the “R406 Solubility” value ([1]; Trial 19: 2% PEG-8000, 10% pG, 88% PBS) was 1.4 mM and the “R406 Solubility” value ([1]; Trial 20: 2% PEG-8000, 15% pPG, 83% PBS) was 22.9 mM. For the same compound, the “R406 Solubility” value ([1]; Trial 21: 0.5% EtOH, 3% Glycerin, 96.5% PBS) was 0.4 mM, the “R406 Solubility” value ([1]; Trial 22: 0.5% EtOH, 5% Cremaphor-eL, 94.5% PBS) was 183.9 mM and the “R406 Solubility” value ([1]; Trial 24: 0.5% EtOH, 15% pPG, 84.5% PBS) was 18.4 mM. For the same compound, the “R406 Solubility” value ([1]; Trial 25: 3% Glycerin, 5% Cremaphor-eL, 92% PBS) was 183.9 mM, the “R406 Solubility” value ([1]; Trial 26: 3% Glycerin, 10% pG, 87% PBS) was 0.4 mM and the “R406 Solubility” value ([1]; Trial 27: 3% Glycerin, 15% pPG, 82% PBS) was 18.2 mM. For the same compound, the “R406 Solubility” value ([1]; Trial 28: 5% Cremaphor-eL, 10% pG, 85% PBS) was 161.5 mM, the “R406 Solubility” value ([1]; Trial 29: 5% Cremaphor-eL, 15% pPG, 80% PBS) was 138.0 mM and the “R406 Solubility” value ([1]; Trial 30: 10% pG, 15% pPG, 75% PBS) was 23.3 mM. For the same compound, the “R406 Solubility” value ([1]; Trial 32: 0.5% EtOH, 5% Cremaphor-eL, 0.2% Tween-80, 94.3% PBS) was 830.9 mM and the “R406 Solubility” value ([1]; Trial 33: 0.5% EtOH, 3% Glycerin, 5% Cremaphor-eL, 0.2% Tween-80, 91.3% PBS) was 773.9 mM.
With COc1cc(Nc2ncc(F)c(Nc3ccc4c(n3)NC(=O)C(C)(C)O4)n2)cc(OC)c1OC [R406] the “Average Concentration in castor oil emulsion” value ([2]; Initial Concentration, room temperature, n=4) was 12.39 ± 1.21 mM, the “time emulsion was stable” value ([2]; R406 castor oil emulsion, room temperature) was 48 h and the “Average Concentration in castor oil emulsion” value [2, 6] was 11.03 ± 2.09 mM. The “Percentage of Initial Concentration in castor oil emulsion” value (from here on “Percentage … in castor oil emulsion”) [2, 6] was 89.0%, the “Average Concentration in castor oil emulsion” value [2, 7] was 9.78 ± 3.13 mM and the “Percentage … in castor oil emulsion” value [2, 7] was 78.9%. The “Average Concentration in castor oil emulsion” value [2, 8] was 12.45 ± 1.43 mM, the “Percentage … in castor oil emulsion” value [2, 8] was 100.5% and the “concentration of R406 achieved in emulsion” value ([2]; castor oil emulsion) was 6500 µM. For the same compound, the “time stable in castor oil emulsion” value ([2]; room temperature) was “at least 72 hours”, the “Average Concentration in cosolvent formulation” value ([3]; Initial Concentration, room temperature) was 743.6 µM and the “Average Concentration in cosolvent formulation” value [3, 7] was 252.5 µM. For the same compound, the “Percentage of Initial Concentration in cosolvent formulation” value [3, 7] was 34%, the “maximum concentration of R406 in solution formulation” value ([3]; cosolvent solution formulation with FDA approved ophthalmic adjuvants) was “approximately 900 μM” and the “time chemically stable in cosolvent solution formulation (no loss of purity)” value ([3]; room temperature) was 48 h. The “time extracted samples were stable” value ([4]; extracted from murine plasma, room temperature) was “at least 48 hours”, the Accuracy% ([4]; extracted plasma samples in autosampler for 2 days, injected at Day 3, High Control 3333.3 nM) was 94.4% and the Accuracy% ([4]; extracted plasma samples in autosampler for 2 days, injected at Day 3, Low Control 41.2 nM) was 97.4%. It also gave an Accuracy% ([4]; extracted plasma samples in autosampler for 2 days, injected at Day 3, Middle Control 370.4 nM) of 97.6%, an Accuracy% ([4]; murine plasma at -20°C, thawed on Day 2, injected at Day 3, High Control 3333.3 nM) of 95.6% and an Accuracy% ([4]; murine plasma at -20°C, thawed on Day 2, injected at Day 3, Low Control 41.2 nM) of 109.2%. For the same compound, the Accuracy% ([4]; murine plasma at -20°C, thawed on Day 2, injected at Day 3, Middle Control 370.4 nM) was 98.4%, the Accuracy% ([4]; murine plasma at -20°C, thawed on Day 3, injected at Day 3, Middle Control 370.4 nM) was 101.5% and the Accuracy% ([4]; murine plasma at -80°C, injected at Day 8, High Control 3333.3 nM) was 84.3%. The Accuracy% ([4]; murine plasma at -80°C, injected at Day 8, Low Control 41.2 nM) was 87.8%, the Accuracy% ([4]; murine plasma at -80°C, injected at Day 8, Middle Control 370.4 nM) was 93.1% and the Accuracy% ([4]; murine plasma at -80°C, injected at Day 15, High Control 3333.3 nM) was 89.5%. For the same compound, the Accuracy% ([4]; murine plasma at -80°C, injected at Day 15, Low Control 41.2 nM) was 84.8%, the Accuracy% ([4]; murine plasma at -80°C, injected at Day 15, Middle Control 370.4 nM) was 84.7% and the “time spiked samples were stable” value ([4]; murine plasma stored at -20°C) was “at least 72 hours”. The “time spiked samples were stable” value ([4]; murine plasma stored at -80°C) was no less than 14 days, the Accuracy% ([5]; High Control 3333.3 nM) was 90.3% and the Accuracy% ([5]; Low Control 41.2 nM) was 96.1%.
